Source: patent publication US5342970A, “Hydrosoluble coumarin derivatives, their preparation and their use as an enzyme substrate or for the preparation of such substrates” (priority 1991, dated 1994)
In brackets after ≈: the same amount, converted by molar mass. Several values for one entry are separate records, joined by “and”; a condition that tells them apart may be missing. Equal entries are not always repeated. Structures can show the parent of a compound that is named as a salt. Where two headings read alike, the source gives them in different places. One block for each compound: values may come before it.

Legend:
Pig pancreas trypsin [1] = target: T1, Pig pancreas trypsin (Sus scrofa, UniProt P00761); conditions: for comparison purposes; cited from earlier work
[2] = Solubility in water and in water-ethanol mixtures; type: physicochemical
[3] = Excitation and emission spectra of ATC derivatives (Table 4); type: physicochemical; conditions: 10^-7 M, Z-Arg-ATC in 50 mM Tris pH 8, 10 mM CaCl2
Experimental: The excitation and emission spectra of ATC and Z-Arg-ATC were plotted on the basis of 10^-7 M solutions in the 50 mM Tris buffer at pH 8 containing 10 mM of CaCl2. The maxima obtained are indicated in table 4 with the corresponding maxima of Leu-ATC.

Pig pancreas trypsin [4] = target: T1, Pig pancreas trypsin; experiment: Hydrolysis of substrate by trypsin, Michaelis kinetics; type: biochemical
Experimental: Crystalline Z-Arg-ATC hydrochloride (Seratec): 10^-3 M solution in Tris buffer, pH 8.0+CACl2, 10 mM.
Pig pancreas trypsin (SIGMA T0134): 10^-3 M solution in Tris buffer, pH 8.0+CACl2, 10 mM.
Tris buffer: solution A: 0.2M Tris, i.e. 24.23 g/l+CaCl2, 40 mM, i.e. 5.88 g/l; solution B: 0.1M HCl.
This buffer is prepared by mixing 250 ml of solution A with 268 ml of solution B and by topping up to 1 liter with water.
Acetate buffer: solution A: 0.02M acetic acid; solution B: 0.02M sodium acetate.
This buffer is prepared by mixing volume by volume solutions A and B to obtain a buffer at pH 4.75.
Aqueous 1.17N perchloric acid solution (1/10 dilution of pure acid).
The following substrate concentration range was prepared in tubes: 0-0.2-0.5-1-2-5-10×10^-4 M (final concentration).
To each tube was added a concentration of 6.67 μg/ml of trypsin, everything being dissolved in the Tris buffer pH 8.0+CaCl2, 10 mM and at ambient temperature. The enzyme is added at time 0. After 2 minutes, 250 μl are removed from each tube and poured into tubes containing 250 μl of 1.17N perchloric acid and 500 μl of water. The tubes are centrifuged and then the solution is diluted to 1/250 in the acetate buffer. The same operation is repeated at 17 min. The fluorescence intensity is measured at 380/490nm. The difference of the intensities at 17 and 2 min constitutes the signal.
The corresponding ATC concentration is calculated compared with a calibration range from 5×10^-9 to 2×10^-7 M.
This was followed by the determination of Km, Vm, kcat and the ratio kcat/Km. The results obtained are given in table 6, which also gives for comparison purposes the values obtained with Z-L-Arg-AMC and Bz DL Arg-AMC and Bz -L-Arg-AMC.

Pig pancreas trypsin [5] = target: T1, Pig pancreas trypsin; experiment: Determination of trypsin, analytical characteristics; type: biochemical
Experimental: Six calibration ranges containing a final enzyme concentration of 0-0.42-0.84-1.67-3.33-6.67 μg/ml were prepared. Each calibration curve was determined by linear regression. The mean standard deviation is 2.45×10^-3 ±0.003×10^-3 for the gradient and 4.80×10^-3 ±2.53×10^-3 for the intercept The linearity test is significant at the 5% threshold (W=0.245). The quantification limit, calculated by the ratio 3σb /a is 0.05 μg/ml. The repeatability, evaluated by the variation coefficient, is 9.4% at 0.42 μg/ml, 5.9% at 0.84 μg/ml and 1.3% at 6.67 μg/ml.

[6] = Excitation and emission spectra of substrates and hydrolysis products (Table 1); type: physicochemical; conditions: 10^-7 M in Tris buffer, pH 7.8
Leucine aminopeptidase = conditions: known substrates, for comparison; medium with organic solvent; cited from earlier work
[7] = water, read-out: Solubility in water
[8] = enzyme 0-6.67 μg/ml, linear regression

T1 sequence (P00761 9-231): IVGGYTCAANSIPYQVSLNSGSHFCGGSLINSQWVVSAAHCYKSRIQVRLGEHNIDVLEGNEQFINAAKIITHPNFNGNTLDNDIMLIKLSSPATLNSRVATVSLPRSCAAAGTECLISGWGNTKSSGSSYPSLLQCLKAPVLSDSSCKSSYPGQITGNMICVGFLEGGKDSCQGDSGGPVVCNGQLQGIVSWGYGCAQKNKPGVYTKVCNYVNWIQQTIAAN

Structure (SMILES): Cc1cc(=O)oc2cc(NC(=O)C(CCCNC(=N)N)NC(=O)c3ccccc3)ccc12 (racemic) [Bz--DL--Arg--AMC]
Km (Pig pancreas trypsin [1]): 250 µM | kcat (Pig pancreas trypsin [1]): 0.20 s⁻¹ | kcat/Km (Pig pancreas trypsin [1]): 800 M⁻¹ s⁻¹

Structure (SMILES): Cc1cc(=O)oc2cc(NC(=O)[C@H](CCCNC(=N)N)NC(=O)c3ccccc3)ccc12 [Bz--L--Arg--AMC]
Km (Pig pancreas trypsin [1]): 110 µM | kcat (Pig pancreas trypsin [1]): 0.42 s⁻¹ | kcat/Km (Pig pancreas trypsin [1]): 3800 M⁻¹ s⁻¹

solubility ([2]; ethanol:water 30:70, organic solvent or mixture, read-out: Solubility in ethanol:water mixture (30:70)): 3000 µg/mL (≈ 8.03 mM) | solubility [2, 7]: 200 µg/mL (≈ 0.536 mM)
Structure (SMILES): COCCOCCOCc1cc(=O)oc2c3c4c(cc12)CCCN4CCC3 [Compound 7, 2,3,6,7-tetrahydro-9-(2',5',8'-trioxanonyl)-1H, 5H, 11H-(1)-benzopyrano-(6,7,8-ij)-quinolizinone-11]

solubility ([2]; water-ethanol 90:10, organic solvent or mixture, read-out: Solubility in the water-ethanol mixture (90:10)): 7000 µg/mL (≈ 23.8 mM) | solubility [2, 7]: 1000 µg/mL (≈ 3.4 mM)
Structure (SMILES): COCCOCCOCc1cc(=O)oc2cc(O)ccc12 [Compound 10, 7-hydroxy-4-(2',5',8'-trioxanonyl)coumarin]

excitation maximum, substrate [3]: 355 nm | fluorescence maximum, substrate ([3]; hydrochloride): 415 nm and 450 nm | Vm (Pig pancreas trypsin [4]; Tris buffer pH 8.0 + CaCl2 10 mM, ambient temperature): 474 nmole/min/mg Ez | ATC hydrolysis solution (Pig pancreas trypsin [4]; substrate 0.2×10^-4 M): 0.224 µM/min | ATC working solution (Pig pancreas trypsin [4]; substrate 0.2×10^-4 M): 3.36 nM | IF(17)-IF(2) (Pig pancreas trypsin [4]; substrate 0.2×10^-4 M): 3.7 | ATC hydrolysis solution (Pig pancreas trypsin [4]; substrate 0.5×10^-4 M): 0.467 µM/min | ATC working solution (Pig pancreas trypsin [4]; substrate 0.5×10^-4 M): 7.00 nM | IF(17)-IF(2) (Pig pancreas trypsin [4]; substrate 0.5×10^-4 M): 7.7 | ATC hydrolysis solution (Pig pancreas trypsin [4]; substrate 1×10^-4 M): 1.03 µM/min | ATC working solution (Pig pancreas trypsin [4]; substrate 1×10^-4 M): 15.4 nM | IF(17)-IF(2) (Pig pancreas trypsin [4]; substrate 1×10^-4 M): 16.9 | ATC hydrolysis solution (Pig pancreas trypsin [4]; substrate 2×10^-4 M): 1.81 µM/min | ATC working solution (Pig pancreas trypsin [4]; substrate 2×10^-4 M): 27.1 nM | IF(17)-IF(2) (Pig pancreas trypsin [4]; substrate 2×10^-4 M): 29.8 | ATC hydrolysis solution (Pig pancreas trypsin [4]; substrate 5×10^-4 M): 2.36 µM/min | ATC working solution (Pig pancreas trypsin [4]; substrate 5×10^-4 M): 35.4 nM | IF(17)-IF(2) (Pig pancreas trypsin [4]; substrate 5×10^-4 M): 38.9 | ATC hydrolysis solution (Pig pancreas trypsin [4]; substrate 10×10^-4 M): 2.57 µM/min | ATC working solution (Pig pancreas trypsin [4]; substrate 10×10^-4 M): 38.6 nM | IF(17)-IF(2) (Pig pancreas trypsin [4]; substrate 10×10^-4 M): 42.4 | affinity and activity compared with Bz-DL-Arg-AMC (Pig pancreas trypsin [4]; words): comparable with Bz-DL-Arg-AMC | repeatability (variation coefficient) (Pig pancreas trypsin [5]; at 0.42 μg/ml enzyme): 9.4% | repeatability (variation coefficient) (Pig pancreas trypsin [5]; at 0.84 μg/ml enzyme): 5.9% | repeatability (variation coefficient) (Pig pancreas trypsin [5]; at 6.67 μg/ml enzyme): 1.3% | gradient of calibration curve (Pig pancreas trypsin [5]; [8]): 2.45×10^-3 ±0.003×10^-3 | intercept of calibration curve (Pig pancreas trypsin [5]; [8]): 4.80×10^-3 ±2.53×10^-3 | quantification limit (Pig pancreas trypsin [5]; trypsin, ratio 3σb/a): 0.05 µg/mL
Structure (SMILES): COCCOCCOCc1cc(=O)oc2cc(NC(=O)[C@H](CCCNC(=N)N)NC(=O)OCc3ccccc3)ccc12 [Compound 14, N-carbobenzyloxy-L-arginyl-4-(2',5',8'-trioxanonyl)-7-coumarinylamide hydrochloride]
detection limit for trypsin compared with substrates derived from AMC (Pig pancreas trypsin [5]; words): of the same order of magnitude as that obtained with substrates derived from AMC

Structure (SMILES): N=C(N)NCCC[C@H](NC(=O)CNC(=O)CN)C(=O)Nc1ccc2c(CS(=O)(=O)O)cc(=O)oc2c1 [GlyGly Arg AMCS, reference compound]
Maximum excitation wavelength, substrate [6]: 336 nm | Maximum fluorescence wavelength, substrate [6]: 409 nm

Structure (SMILES): CC(C)C[C@H](N)C(=O)Nc1ccc2ccccc2c1 [Leu-βnaphthylamide]
Km (Leucine aminopeptidase): 150 µM | Vm (Leucine aminopeptidase): 5.5 μmole/mg Ez/min

Structure (SMILES): Cc1cc(=O)oc2cc(NC(=O)[C@H](CCCNC(=N)N)NC(=O)OCc3ccccc3)ccc12 [Z--L--Arg--AMC]
Km (Pig pancreas trypsin [1]): 200 µM | kcat (Pig pancreas trypsin [1]): 0.89 s⁻¹ | kcat/Km (Pig pancreas trypsin [1]): 4500 M⁻¹ s⁻¹
